Results published in paper PMC5861127, “3-pyridyl inhibitors with novel activity against Trypanosoma cruzi reveal in vitro profiles can aid prediction of putative cytochrome P450 inhibition” (Scientific Reports, 2018).
Where “and” joins values, the source holds several entries; their conditions need not be identical. Identical values can stand only once. Like-named read-outs stand apart in the source and are kept apart here.

Columns and labels:
T. cruzi amastigotes [1] = test: 96 hour image-based assay; assay type: cell-based, Trypanosoma cruzi; conditions: for Emax: Trypanosoma cruzi
Description: The assay format was the same as the 48 hour assay, although plates were incubated for 96 hours. […] Two extra wash steps were included to remove as many extracellular parasites as possible to reduce impact on determination of intracellular parasites. […] Two experimental replicates were undertaken.

T. cruzi epimastigotes = test: 120 hour T. cruzi epimastigote assay (PrestoBlue); assay type: cell-based; conditions: Trypanosoma cruzi
Description: Additions were made with a Multidrop dispenser and compounds were added directly following parasite addition. Plates were incubated for 112 hours before the addition 10 µL of PrestoBlue® viability reagent (Thermo Fisher, USA). […] The positive control was NFX at a final concentration of 14.20 µM and 0.433% DMSO as a negative control.

T. cruzi amastigotes [2] = test: Wash-off assay to assess parasite survival following compound removal; assay type: cell-based; conditions: Trypanosoma cruzi, 48 hours incubation, additional 72 hours without compound, read-out: percentage activity at the Emax, wash-off assay
Description: The T. cruzi assay 48 hour assay was performed. Following, plates were washed 5 times with PBS (containing Mg^2+ and Ca^2+) on a Bravo liquid handler to remove compound pressure. Plates were incubated for an additional 72 hours and wells were washed 5 times before fluorescent labels were added. Plates were imaged on an Opera confocal-based high-content system with 7 fields per well acquired, at 20 times magnification. […] Four experimental replicates were undertaken.

T. cruzi amastigotes [3] = test: 24 hour image-based assay; assay type: cell-based; conditions: Trypanosoma cruzi; for IC50: n of 2, read-out: IC50 value, 24 hours incubation; for Emax: plateau/Emax concentrations, read-out: % activity at the Emax, 24 hours incubation
Description: Compounds were added to assay plates as described for the 48 hour assay, although incubation time was decreased to 24 hours. […] Two experimental replicates were performed.

3T3 host cells = test: 3T3 host cell activity in the T. cruzi image-based assay; parameters: species or system mouse; conditions: for CC50: Mus musculus, NIH3T3, 48 hours, no activity up to top concentration, read-out: IC50 value against 3T3 cells used for SI; for SI to 3T3: ratio 3T3 host cell / parasite IC50, 48 hours
Description: To calculate compound activity, 12.0 µM NFX was used as a positive control and 0.366% DMSO was used as a negative control. To determine the activity against the host cell, 30.0 µM of puromycin was used as a positive control. The percentage normalised activity was determined using the equation outlined in our previous publication[19] and the reproducibility of the assay was determined using the Z’-factor[20].
The assay was performed as previously described. Briefly, 3T3 cells were seeded at a concentration of 1 × 10^3 cells in 50 µL per well into collagen I coated 384-well plates (PerkinElmer, USA). Following 24 hours incubation at 37 °C and 5% CO2, 10 µL of parasites were added to wells at a multiplicity of infection (MOI) of 5:1 (parasites: host cells) with a Multidrop™ dispenser (Thermo Fisher, USA). Following 24 hours incubation, wells were washed with PBS (containing Mg^2+ and Ca^2+) to remove uninfected parasites. One wash was undertaken by using a Multidrop plate dispenser and two washes with a Bravo liquid handling device (Agilent Technologies, USA). Five microlitres of compound were added to plates and incubated for 48 hours. Cells were then fixed and stained with Hoechst (Life Technologies, USA) and HCS CellMask™ Green (Life Technologies, USA) and image acquisition was performed an Opera™ High Content Screening System (PerkinElmer, USA) at 20 times magnification. The positive control was 12.0 µM NFX and the negative control was 0.366% DMSO.

HEK293 cells = test: HEK293 assay (resazurin); assay type: cell-based, human; conditions: 120 hours; HEK293 / epimastigote IC50; NA = SI cannot be determined, tested to 79.4 µM
Description: […] […] Plates were incubated for 24 hours before the addition of compounds. […] The positive control was 32.5 μM puromycin and the negative control was 0.433% DMSO, slightly different to the T. cruzi assay due to the change in volume, whilst utilising the same stock control plate. […] […] […] This was only undertaken for the amastigote assay. Dilutions were prepared with a multichannel pipette ([…], Thermo Fisher Scientific, USA) in 384-well polypropylene plates (Corning, NY, USA).

T. cruzi amastigotes [4] = test: T. cruzi image-based assay (48 hour, intracellular amastigotes in 3T3 host cells); assay type: cell-based, Trypanosoma cruzi; conditions: for Emax: 48 h; for IC50: intracellular amastigotes in 3T3 cells, retested from DMSO stocks (CF from solid sample, temporal experiments)
Description: The assay was performed as previously described. […] One wash was undertaken by using a Multidrop plate dispenser and two washes with a Bravo liquid handling device (Agilent Technologies, USA). Five microlitres of compound were added to plates and incubated for 48 hours. Cells were then fixed and stained with Hoechst (Life Technologies, USA) and HCS CellMaskTM Green (Life Technologies, USA) and image acquisition was performed an OperaTM High Content Screening System (PerkinElmer, USA) at 20 times magnification. […] The maximum activity achievable (Emax) of compounds was determined by taking (or as close to, if concentrations in the Emax were limited) the percentage activity at the mid concentration within the plateau of activity in the concentration response curve (see Supplemental Fig. 1, example NFX). […] Final assay concentrations of compounds ranged from 4.03 μM to 4.03 × 10^-3 μM. […] This was only undertaken for the amastigote assay. Dilutions were prepared with a multichannel pipette ([…], Thermo Fisher Scientific, USA) in 384-well polypropylene plates (Corning, NY, USA). […] Compound IC50 values in the TcCYP51 in vitro assay were calculated in GraFit (Erithacus software) by non-linear slope analysis. All data are presented as mean ± standard deviation. The significance of % clearance of parasites at compound Emax concentrations was calculated in Prism 5.0, using an unpaired student's t-test.

recombinant TcCYP51 = recombinant TcCYP51 (Trypanosoma cruzi, UniProt Q7Z1V1); assay type: biochemical
Sequence of recombinant TcCYP51 (Q7Z1V1 whole entry): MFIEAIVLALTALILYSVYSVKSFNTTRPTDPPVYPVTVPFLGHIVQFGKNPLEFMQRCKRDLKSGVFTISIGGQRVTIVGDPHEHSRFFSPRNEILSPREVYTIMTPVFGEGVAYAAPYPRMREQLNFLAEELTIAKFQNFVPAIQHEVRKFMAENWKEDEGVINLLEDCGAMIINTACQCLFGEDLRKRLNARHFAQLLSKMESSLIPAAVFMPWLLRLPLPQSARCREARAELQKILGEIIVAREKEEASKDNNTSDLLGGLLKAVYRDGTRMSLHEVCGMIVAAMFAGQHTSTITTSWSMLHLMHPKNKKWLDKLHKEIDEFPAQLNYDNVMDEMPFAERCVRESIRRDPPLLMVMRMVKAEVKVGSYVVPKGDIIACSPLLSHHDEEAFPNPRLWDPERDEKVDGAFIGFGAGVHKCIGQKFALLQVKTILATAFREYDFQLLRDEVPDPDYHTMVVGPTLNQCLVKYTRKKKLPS
Description: The activity of compounds against TcCYP51 was determined at the University of Dundee as outlined previously. This assay utilises the fluorogenic probe benzyloxymethyloxycyanocoumarin (BOMCC), activated by TcCYP51. […] Preliminarily testing of MMV001239 was performed using this assay, with 1 replicate concentration response curve generated to establish whether it was a putative TcCYP51 inhibitor.
Compound IC50 values in the T. cruzi and HEK293 cell-based assays were determined using Prism 5.0 (GraphPad software), derived by a sigmoidal concentration response (variable slope) analysis. Compound IC50 values in the TcCYP51 in vitro assay were calculated in GraFit (Erithacus software) by non-linear slope analysis. All data are presented as mean ± standard deviation. The significance of % clearance of parasites at compound Emax concentrations was calculated in Prism 5.0, using an unpaired student’s t-test.

[5] = difference 96 hours minus 48 hours
[6] = DMSO stocks (CF from solid sample), relative to nifurtimox control
[7] = Trypanosoma cruzi, DMSO stocks (CF from solid sample), relative to nifurtimox control, read-out: % activity (Emax)
[8] = Trypanosoma cruzi, NIH3T3, 48 h

Structure (SMILES) | IC50 (T. cruzi epimastigotes) | Emax (T. cruzi amastigotes [2]) | Emax (T. cruzi amastigotes [3]) | CC50 (3T3 host cells) | SI to 3T3 (3T3 host cells) | SI to HEK293 cells (HEK293 cells) | % activity (Emax) (T. cruzi amastigotes [4]; [6]) | Emax (T. cruzi amastigotes [4]; [7]) | IC50 (T. cruzi amastigotes [4]; [8]) | other results
CC1CS(=O)(=O)CCN1/N=C/c1ccc([N+](=O)[O-])o1 (centres unmarked) [NFX, nifurtimox] | 1110 ± 131 nM | 100% | 100% | > 127 µM | >179 | >136 | 102 ± 1.41% | 100% | 709 ± 161 nM | increase in activity at the Emax from 48 to 96 hours incubation (T. cruzi amastigotes [1]; [5]): no difference; IC50 (T. cruzi amastigotes [3]): 1.2 ± 0.0213 µM
COc1ccc2sc(N(Cc3cccnc3)C(=O)c3ccc(C#N)cc3)nc2c1 [MMV001239] | – | – | – | – | – | – | – | – | – | IC50 (recombinant TcCYP51; single concentration response curve, read-out: IC50 value against recombinant TcCYP51, preliminary): 46 nM; percentage activity at the Emax, 48 hours incubation (temporal experiments, Fig. 3) (T. cruzi amastigotes [4]; n of 4): 85 ± 6.4% and 84.8%
CCc1ccc(NC(=O)N(Cc2cccnc2)Cc2ccccc2Cl)cc1 [Compound 1, 1-(2-Chlorobenzyl)-3-(4-ethylphenyl)-1-(3-pyridinylmethyl)urea] | – | – | – | > 18.3 µM | >5.26 | – | – | 84.5 ± 6.36% | 3480 ± 622 nM | –
COc1ccc(C[C@H](N)C(=O)N[C@H]2[C@@H](O)[C@H](n3cnc4c(N(C)C)ncnc43)O[C@@H]2CO)cc1 [PURO, puromycin] | 566 ± 141 nM | – | – | – | 1.36 | 0.386 | – | – | 2010 ± 329 nM | –
CC[C@@H]([C@H](C)O)n1ncn(-c2ccc(N3CCN(c4ccc(OC[C@@H]5CO[C@@](Cn6cncn6)(c6ccc(F)cc6F)C5)cc4)CC3)cc2)c1=O [POSA, posaconazole] | – | 94% | < 50% | 1 µM | – | – | – | 70 ± 8.49% | – | Emax (T. cruzi amastigotes [1]; 96 hours, n of 2, read-out: reduction in infected cells at the Emax, 96 hours exposure): 96.5%; Emax (T. cruzi amastigotes [1]; difference 96 hours minus 48 hours, read-out: increase in activity at the Emax from 48 to 96 hours incubation): 21.3%; Emax (T. cruzi amastigotes [4]; Trypanosoma cruzi, n of 4, read-out: percentage activity at the Emax, 48 hours incubation (temporal experiments, Fig. 3)): 75.3%
Cc1ccc(CN(Cc2cccnc2)C(=O)Nc2ccc(Cl)c(Cl)c2)cc1 [Compound 5, 3-(3,4-Dichlorophenyl)-1-(4-methylbenzyl)-1-(3-pyridinylmethyl)urea] | – | – | – | > 18.3 µM | >10.0 | – | – | 88 ± 9.9% | 1800 ± 3.54 nM | IC50 (T. cruzi amastigotes [4]): 1820 ± 3.54 nM
CCOC(=O)C(=O)NCC(c1cccnc1)N1CCN(c2ccccc2)CC1 (centres unmarked) [Compound 2] | – | – | – | – | >8.43 | – | 76.5 ± 3.54% | – | – | IC50 (recombinant TcCYP51; BOMCC probe, read-out: IC50 value against recombinant TcCYP51): 562 ± 130 nM; IC50 (T. cruzi amastigotes [4]): 2170 ± 499 nM
O=C(Cn1ccnc1[N+](=O)[O-])NCc1ccccc1 [BZ, benznidazole] | 5780 ± 477 nM | 100% | 100% | > 127 µM | >35.7 | >26.1 | 99.5 ± 2.12% | 100% | 3560 ± 2340 nM | increase in activity at the Emax from 48 to 96 hours incubation (T. cruzi amastigotes [1]; [5]): no difference; IC50 (T. cruzi amastigotes [3]): 7.56 ± 2.37 µM
CCOc1ccc(NC(=O)N(Cc2ccc(C)cc2)Cc2cccnc2)cc1 [Compound 4, 3-(4-Ethoxyphenyl)-1-(4-methylbenzyl)-1-(3-pyridinylmethyl)urea] | – | – | – | > 18.3 µM | >13.1 | – | – | 76 ± 1.41% | 1400 ± 79.9 nM | –
CC(=O)N1CCC(N(Cc2cccnc2)C(=O)Nc2ccc(Cl)cc2)CC1 [Compound 3, 1-(1-Acetyl-4-piperidinyl)-3-(4-chlorophenyl)-1-(3-pyridinylmethyl)urea] | – | – | – | > 18.3 µM | >14.2 | – | – | 70.5 ± 0.707% | 1290 ± 368 nM | –
